This passage reports IC50 and EC50 results from US20240245658A1, “TAAR1 AND SEROTONIN MODULATORS, AND PHARMACEUTICAL COMPOSITIONS, AND METHODS OF USE THEREOF” (Sunovion Pharmaceuticals Inc., priority 2021, published 2024).

pEC50, pIC50: −log10 of the molar value. Like-named read-outs stand apart in the source and are kept apart here.

Type in all cases: cell-based
One experiment addresses T1, human 5-HT2A receptor (Homo sapiens, UniProt P28223).
T1 construct: host or cells: CHO-K1
As to the kind of experiment: 5HT2A Antagonism Assay (Euroscreen FAST-05051), IP-One HTRF. The method, boiled down:
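CHO-K1 cells expressing receptor, 20,000/well, co-incubated with test compound and reference agonist at its EC80 for 60 min at 37 °C. IP1 accumulation read by HTRF after ~1 h detection at room temperature. Compounds tested in duplicate at 0.3–10,000 nM.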

The next experiment deals with T2, human 5-HT7 receptor (Homo sapiens, UniProt P34969).
T2 construct: host or cells: CHO-K1
T2 sequence (P34969 whole entry): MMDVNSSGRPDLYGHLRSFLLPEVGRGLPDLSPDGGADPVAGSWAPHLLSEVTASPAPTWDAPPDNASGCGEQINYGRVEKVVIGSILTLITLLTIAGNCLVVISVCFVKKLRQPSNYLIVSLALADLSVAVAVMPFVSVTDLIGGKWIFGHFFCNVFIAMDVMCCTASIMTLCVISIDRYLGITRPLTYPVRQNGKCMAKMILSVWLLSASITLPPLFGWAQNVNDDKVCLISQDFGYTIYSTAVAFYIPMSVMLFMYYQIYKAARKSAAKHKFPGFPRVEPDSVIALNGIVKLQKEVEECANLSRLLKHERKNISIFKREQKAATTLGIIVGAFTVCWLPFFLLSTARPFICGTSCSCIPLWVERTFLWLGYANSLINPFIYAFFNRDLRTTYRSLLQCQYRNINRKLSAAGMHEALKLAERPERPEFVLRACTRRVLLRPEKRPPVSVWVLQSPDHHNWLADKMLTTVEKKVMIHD
As to the kind of experiment: 5HT7 Antagonism Assay (Euroscreen FAST-0499C), cAMP HTRF. To be noted: CHO-K1 cells expressing human 5-HT7, reference agonist at EC80, cAMP HTRF. Summed up: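 CHO-K1 cells expressing human 5-HT7, 3000 per well in Krebs-Ringer HEPES with 1 mM IBMX, were exposed for 30 minutes at room temperature to compound plus reference agonist at its EC80. cAMP was read by HTRF after 1 hour; compounds were tested in duplicate from 0.3 to 10,000 nM.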

Another experiment addresses T3, human TAAR1 receptors (Homo sapiens, UniProt Q96RJ0).
T3 construct: host or cells: CHO-K1
T3 sequence (Q96RJ0 1-339): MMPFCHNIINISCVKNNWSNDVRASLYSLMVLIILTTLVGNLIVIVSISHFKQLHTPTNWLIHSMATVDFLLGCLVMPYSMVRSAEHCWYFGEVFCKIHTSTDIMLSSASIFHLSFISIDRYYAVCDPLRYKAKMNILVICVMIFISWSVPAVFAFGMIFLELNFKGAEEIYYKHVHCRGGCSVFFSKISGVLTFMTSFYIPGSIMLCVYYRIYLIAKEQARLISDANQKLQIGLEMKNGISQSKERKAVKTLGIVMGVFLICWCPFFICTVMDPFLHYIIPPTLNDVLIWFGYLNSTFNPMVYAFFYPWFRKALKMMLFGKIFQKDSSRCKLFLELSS
As to the kind of experiment: TAAR1 Agonism Assay: cAMP HTRF assay for Gs coupled receptor TAAR1 (Euroscreen FAST-0987C). To be noted: CHO-K1 cells expressing human TAAR1, cAMP HTRF. Summed up:
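cAMP accumulation detected by HTRF fluorescence ratio, reagents added in lysis buffer and incubated 1 h at about room temperature. Beforehand, cells (about 3,000 per well) sat with test compound at ten concentrations from 0.3 to 10,000 nM in duplicate for roughly 30 min at about room temperature; tyramine dose-response run alongside.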

[1] abbreviates: CHO-K1 cells expressing human 5-HT2A, reference agonist at EC80, IP-One, read-out: 5-HT2A (IC50).
[2] abbreviates: 5-HT2A (IC50), CHO-K1 cells expressing human 5-HT2A, reference agonist at EC80, IP-One.
The mark [3] stands for this setting: read-out: 5-HT2A (IC50), CHO-K1 cells expressing human 5-HT2A, reference agonist at EC80, IP-One.

T1 sequence (P28223 whole entry): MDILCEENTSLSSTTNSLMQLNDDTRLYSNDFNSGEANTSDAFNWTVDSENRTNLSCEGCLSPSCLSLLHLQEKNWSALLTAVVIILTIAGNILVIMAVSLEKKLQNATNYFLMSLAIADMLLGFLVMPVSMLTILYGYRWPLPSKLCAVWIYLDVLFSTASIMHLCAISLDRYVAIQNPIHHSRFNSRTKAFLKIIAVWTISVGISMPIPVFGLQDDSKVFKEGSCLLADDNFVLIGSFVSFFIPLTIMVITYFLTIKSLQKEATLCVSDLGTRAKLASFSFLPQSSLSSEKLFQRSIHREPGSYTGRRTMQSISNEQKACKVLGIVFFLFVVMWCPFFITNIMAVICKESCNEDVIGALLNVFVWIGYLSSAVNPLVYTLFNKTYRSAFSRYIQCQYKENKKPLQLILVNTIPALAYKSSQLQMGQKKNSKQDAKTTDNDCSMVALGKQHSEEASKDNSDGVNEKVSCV

On to `CNCC1Oc2ccccc2Oc2cnccc21` (single isomer, unassigned) [Compound 52, (S*)-1-(5H-benzo[2,3][1,4]dioxepino[5,6-c]pyridin-5-yl)-N-methylmethanamine], for which the results for the pIC50 at human 5-HT2A receptor (setting [1]) and at human 5-HT7 receptor were 5.00 to 6.00 and at most 5.00, respectively. On human TAAR1 receptors, this compound gave a pEC50 below 5.00.

For the compound `NCC1Oc2ccccc2Oc2ccncc21` (single isomer, unassigned) [Compound 53, (R*)-(11H-benzo[2,3][1,4]dioxepino[6,5-c]pyridin-11-yl)methanamine], the pIC50 on human 5-HT2A receptor (setting [1]) is below 5.00; at human 5-HT7 receptor, at most 5.00. The pEC50 at human TAAR1 receptors was 5.00 to 6.00.

In the case of `NCC1Oc2ccccc2Oc2ccncc21` (single isomer, unassigned) [Compound 54, (S*)-(11H-benzo[2,3][1,4]dioxepino[6,5-c]pyridin-11-yl)methanamine], the pIC50 at human 5-HT2A receptor (setting [1]) was below 5.00; at human 5-HT7 receptor, at most 5.00. The pEC50 on human TAAR1 receptors was 5.00 to 6.00.

For the compound `CNC[C@@H]1Oc2ccccc2Oc2ccncc21` (single isomer, unassigned) [Compound 55, (R*)-1-(11H-benzo[2,3][1,4]dioxepino[6,5-c]pyridin-11-yl)-N-methylmethanamine], the pIC50 at human 5-HT2A receptor (setting [1]) was below 5.00; at human 5-HT7 receptor, at most 5.00. For the same compound, the pEC50 on human TAAR1 receptors was below 5.00.

In the case of `CNC[C@H]1Oc2ccccc2Oc2ccncc21` (single isomer, unassigned) [Compound 56, (S*)-1-(11H-benzo[2,3][1,4]dioxepino[6,5-c]pyridin-11-yl)-N-methylmethanamine], the pIC50 on human 5-HT2A receptor (setting [1]) was below 5.00; on human 5-HT7 receptor, at most 5.00. The compound also showed a pEC50 at human TAAR1 receptors below 5.00.

On to `CNCC1Oc2ccccc2Oc2cccnc21` (single isomer, unassigned) [Compound 57, (S*)-1-(11H-benzo[2,3][1,4]dioxepino[6,5-b]pyridin-11-yl)-N-methylmethanamine], for which the pIC50 on human 5-HT2A receptor (setting [2]) is 5.00 to 6.00; at human 5-HT7 receptor it was at most 5.00. This compound also had a pEC50 at human TAAR1 receptors above 6.00.

`CNCC1Oc2ccccc2Oc2cccnc21` (single isomer, unassigned) [Compound 58, (R*)-1-(11H-benzo[2,3][1,4]dioxepino[6,5-b]pyridin-11-yl)-N-methylmethanamine]: the pIC50 on human 5-HT2A receptor (setting [3]) and on human 5-HT7 receptor was 5.00 to 6.00 in each case. The compound further gave a pEC50 at human TAAR1 receptors above 6.00.

Consider `NCC1Oc2ccccc2Oc2cccnc21` (single isomer, unassigned) [Compound 59, (S*)-(11H-benzo[2,3][1,4]dioxepino[6,5-b]pyridin-11-yl)methanamine], for which the figures for the pIC50 at human 5-HT2A receptor (setting [2]) and at human 5-HT7 receptor were below 5.00 and at most 5.00, respectively. The same compound gave a pEC50 at human TAAR1 receptors above 6.00.

In the case of `NCC1Oc2ccccc2Oc2cccnc21` (single isomer, unassigned) [Compound 60, (R*)-(11H-benzo[2,3][1,4]dioxepino[6,5-b]pyridin-11-yl)methanamine], the negative logarithm of the IC50 (pIC50) on human 5-HT2A receptor (setting [3]) was below 5.00; on human 5-HT7 receptor, at most 5.00. Besides, at human TAAR1 receptors, the pEC50 is above 6.00.

For the compound `NCC1Cc2c(F)cccc2Oc2ccccc21` (single isomer, unassigned) [Compound 80, (R*)-(1-fluoro-10,11-dihydrodibenzo[b,f]oxepin-10-yl)methanamine], the pIC50 on human 5-HT2A receptor (setting [2]) was above 6.00; at human 5-HT7 receptor, at most 5.00. Moreover, the pEC50 on human TAAR1 receptors is above 6.00.

With `NCC1Cc2c(F)cccc2Oc2ccccc21` (single isomer, unassigned) [Compound 81, (S*)-(1-fluoro-10,11-dihydrodibenzo[b,f]oxepin-10-yl)methanamine], the figures for the pIC50 on human 5-HT2A receptor (setting [3]) and at human 5-HT7 receptor were above 6.00 and at most 5.00, respectively. The compound further gave a pEC50 on human TAAR1 receptors above 6.00.

With `CNCC1Cc2c(F)cccc2Oc2ccccc21` (single isomer, unassigned) [Compound 82, (R*)-1-(1-fluoro-10,11-dihydrodibenzo[b,f]oxepin-10-yl)-N-methylmethanamine], the values for the pIC50 on human 5-HT2A receptor (setting [2]) and at human 5-HT7 receptor were above 6.00 and 5.00 to 6.00, respectively. The negative logarithm of the EC50 (pEC50) at human TAAR1 receptors was above 6.00.

In the case of `CNCC1Cc2c(F)cccc2Oc2ccccc21` (single isomer, unassigned) [Compound 83, (S*)-1-(1-fluoro-10,11-dihydrodibenzo[b,f]oxepin-10-yl)-N-methylmethanamine], the pIC50 at human 5-HT2A receptor (setting [3]) was above 6.00; at human 5-HT7 receptor, 5.00 to 6.00. The compound further showed a pEC50 on human TAAR1 receptors below 5.00.

In the case of `NCC1Cc2cccc(F)c2Oc2ccccc21` (single isomer, unassigned) [Compound 84, (R*)-(4-fluoro-10,11-dihydrodibenzo[b,f]oxepin-10-yl)methanamine], the pIC50 is below 5.00 at human 5-HT2A receptor (setting [2]) and at most 5.00 on human 5-HT7 receptor. On human TAAR1 receptors, the negative-log EC50 (pEC50) was above 6.00.

`NCC1Cc2cccc(F)c2Oc2ccccc21` (single isomer, unassigned) [Compound 85, (S*)-(4-fluoro-10,11-dihydrodibenzo[b,f]oxepin-10-yl)methanamine]: the negative-log IC50 (pIC50) at human 5-HT2A receptor (setting [2]) was 5.00 to 6.00; at human 5-HT7 receptor, at most 5.00. The pEC50 on human TAAR1 receptors was above 6.00.

On to `CNCC1Cc2cccc(F)c2Oc2ccccc21` (single isomer, unassigned) [Compound 86, (R*)-(4-fluoro-10,11-dihydrodibenzo[b,f]oxepin-10-yl)-N-methylmethanamine], for which the pIC50 on human 5-HT2A receptor (setting [2]) was above 6.00; on human 5-HT7 receptor, 5.00 to 6.00. The pEC50 at human TAAR1 receptors is above 6.00.

Consider `CNCC1Cc2cccc(F)c2Oc2ccccc21` (single isomer, unassigned) [Compound 87, (S*)-(4-fluoro-10,11-dihydrodibenzo[b,f]oxepin-10-yl)-N-methylmethanamine], for which the results for the pIC50 on human 5-HT2A receptor (setting [3]) and at human 5-HT7 receptor were above 6.00 and 5.00 to 6.00, respectively. At human TAAR1 receptors, this compound gave a pEC50 above 6.00.

With `NCC1Cc2ccc(F)cc2Oc2ccccc21` (single isomer, unassigned) [Compound 89, (S*)-(3-fluoro-10,11-dihydrodibenzo[b,f]oxepin-10-yl)methanamine], the results for the pIC50 on human 5-HT2A receptor (setting [2]) and at human 5-HT7 receptor were above 6.00 and at most 5.00, respectively. The compound also gave a pEC50 on human TAAR1 receptors above 6.00.

Regarding `CNCC1Cc2ccc(F)cc2Oc2ccccc21` (single isomer, unassigned) [Compound 90, (R*)-(3-fluoro-10,11-dihydrodibenzo[b,f]oxepin-10-yl)-N-methylmethanamine], the pIC50 was above 6.00 on human 5-HT2A receptor (setting [2]) and 5.00 to 6.00 on human 5-HT7 receptor. The compound further showed a pEC50 on human TAAR1 receptors below 5.00.

For the compound `CNCC1Cc2ccc(F)cc2Oc2ccccc21` (single isomer, unassigned) [Compound 91, (S*)-(3-fluoro-10,11-dihydrodibenzo[b,f]oxepin-10-yl)-N-methylmethanamine], the pIC50 on human 5-HT2A receptor (setting [3]) and on human 5-HT7 receptor was above 6.00 each time. For the same compound, the pEC50 on human TAAR1 receptors was above 6.00.

For the compound `NCC1Cc2ccccc2Oc2ccc(F)cc21` (single isomer, unassigned) [Compound 92, (R*)-(8-fluoro-10,11-dihydrodibenzo[b,f]oxepin-10-yl)methanamine], the pIC50 was above 6.00 at human 5-HT2A receptor (setting [2]) and at most 5.00 at human 5-HT7 receptor. In addition, the pEC50 on human TAAR1 receptors was above 6.00.

Turning to `CNCC1Cc2ccccc2Oc2ccc(F)cc21` (single isomer, unassigned) [Compound 94, (R*)-(8-fluoro-10,11-dihydrodibenzo[b,f]oxepin-10-yl)-N-methylmethanamine], the pIC50 was above 6.00 on human 5-HT2A receptor (setting [2]) and 5.00 to 6.00 on human 5-HT7 receptor. Moreover, the pEC50 at human TAAR1 receptors is above 6.00.

For the compound `CNCC1Cc2ccccc2Oc2ccc(F)cc21` (single isomer, unassigned) [Compound 95, (S*)-(8-fluoro-10,11-dihydrodibenzo[b,f]oxepin-10-yl)-N-methylmethanamine], the negative-log IC50 (pIC50) was above 6.00 at human 5-HT2A receptor (setting [3]) and 5.00 to 6.00 at human 5-HT7 receptor. This compound had a pEC50 at human TAAR1 receptors of 5.00 to 6.00.

Turning to `NCC1Cc2cc(F)ccc2Oc2ccccc21` (single isomer, unassigned) [Compound 96, (R*)-(2-fluoro-10,11-dihydrodibenzo[b,f]oxepin-10-yl)methanamine], the pIC50 on human 5-HT2A receptor (setting [2]) is above 6.00; on human 5-HT7 receptor, at most 5.00. In addition, the pEC50 on human TAAR1 receptors was above 6.00.

In the case of `CNCC1Cc2cc(F)ccc2Oc2ccccc21` (single isomer, unassigned) [Compound 98, (R*)-(2-fluoro-10,11-dihydrodibenzo[b,f]oxepin-10-yl)-N-methylmethanamine], the pIC50 at human 5-HT2A receptor (setting [2]) is above 6.00; on human 5-HT7 receptor, 5.00 to 6.00. Moreover, the pEC50 on human TAAR1 receptors was above 6.00.

Regarding `NCC1Cc2ccccc2Oc2c(F)cccc21` (single isomer, unassigned) [Compound 100, (R*)-(6-fluoro-10,11-dihydrodibenzo[b,f]oxepin-10-yl)methanamine], the pIC50 at human 5-HT2A receptor (setting [2]) is above 6.00; at human 5-HT7 receptor, at most 5.00. The compound further had a pEC50 on human TAAR1 receptors above 6.00.
